Experimental data from patent US11993599B2, “Therapeutic compounds” (Genentech, Inc., priority 2021, dated 2024).

What was measured:
BRM = BRM (Homo sapiens, UniProt P51531); assay: Immunofluorescence assay for BRM degradation in SW1573 cells; assay type: cell-based; design: treated overnight at 4° C. with either BRM primary antibody (Cell signaling Cat #11966) or BRG primary antibody; endogenous in cells; host or cells: SW1573; conditions: 20 hours incubation; for DC50: immunofluorescence mean nuclear signal, read-out: BRM IF Degradation IC50; for BRM IF Degradation Sinf (%): normalized to a known degrader control
BRM, sequence (P51531 whole entry): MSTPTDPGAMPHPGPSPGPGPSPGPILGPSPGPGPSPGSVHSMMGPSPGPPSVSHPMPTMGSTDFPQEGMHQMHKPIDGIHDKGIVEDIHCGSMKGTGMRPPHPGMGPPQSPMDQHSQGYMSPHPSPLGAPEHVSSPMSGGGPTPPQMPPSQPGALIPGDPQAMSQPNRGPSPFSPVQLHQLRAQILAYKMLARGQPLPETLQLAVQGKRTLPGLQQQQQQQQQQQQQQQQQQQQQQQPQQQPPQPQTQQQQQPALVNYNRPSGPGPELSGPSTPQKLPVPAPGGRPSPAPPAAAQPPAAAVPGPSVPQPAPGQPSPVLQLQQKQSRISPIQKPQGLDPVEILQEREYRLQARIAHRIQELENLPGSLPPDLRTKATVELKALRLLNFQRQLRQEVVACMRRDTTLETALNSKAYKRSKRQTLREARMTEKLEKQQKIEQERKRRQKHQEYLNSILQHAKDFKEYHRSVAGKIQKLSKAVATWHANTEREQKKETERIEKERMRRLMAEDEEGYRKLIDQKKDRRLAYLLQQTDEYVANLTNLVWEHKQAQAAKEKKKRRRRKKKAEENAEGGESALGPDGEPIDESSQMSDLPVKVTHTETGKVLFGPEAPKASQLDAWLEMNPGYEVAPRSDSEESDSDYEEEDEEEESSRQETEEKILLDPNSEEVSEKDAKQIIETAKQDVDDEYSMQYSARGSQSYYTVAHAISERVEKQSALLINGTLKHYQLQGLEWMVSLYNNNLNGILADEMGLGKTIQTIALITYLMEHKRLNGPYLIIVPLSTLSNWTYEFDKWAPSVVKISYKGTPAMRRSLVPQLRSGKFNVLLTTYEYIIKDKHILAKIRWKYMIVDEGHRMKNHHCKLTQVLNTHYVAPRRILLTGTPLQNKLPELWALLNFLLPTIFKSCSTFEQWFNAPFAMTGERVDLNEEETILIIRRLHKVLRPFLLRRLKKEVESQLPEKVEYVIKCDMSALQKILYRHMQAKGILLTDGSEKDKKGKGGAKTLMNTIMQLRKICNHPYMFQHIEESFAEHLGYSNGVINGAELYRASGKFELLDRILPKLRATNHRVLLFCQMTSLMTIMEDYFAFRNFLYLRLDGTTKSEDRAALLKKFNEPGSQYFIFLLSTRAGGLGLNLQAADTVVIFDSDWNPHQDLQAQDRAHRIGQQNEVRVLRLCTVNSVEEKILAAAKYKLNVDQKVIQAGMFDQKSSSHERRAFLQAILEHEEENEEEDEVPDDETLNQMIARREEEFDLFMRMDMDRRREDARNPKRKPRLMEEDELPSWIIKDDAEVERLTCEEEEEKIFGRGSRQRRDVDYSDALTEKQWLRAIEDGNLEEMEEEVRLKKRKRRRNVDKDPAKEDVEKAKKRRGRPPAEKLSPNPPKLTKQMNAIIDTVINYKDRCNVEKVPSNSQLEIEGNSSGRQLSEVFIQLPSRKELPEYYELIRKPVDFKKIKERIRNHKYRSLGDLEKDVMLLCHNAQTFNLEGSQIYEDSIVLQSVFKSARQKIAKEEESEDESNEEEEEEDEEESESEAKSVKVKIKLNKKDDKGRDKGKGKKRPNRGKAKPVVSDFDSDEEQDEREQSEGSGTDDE
Summary of the method: (§1)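 SW1573 cells were treated with compound for 20 h, fixed, permeabilized and immunostained for BRM or BRG1 with a Hoechst nuclear counterstain. Mean nuclear signal intensity per cell was quantified by high-content imaging, normalized to a known degrader control, and dose-response curves were fit with a floating maximum to derive Dmax.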

BRG1 = target: T1, BRG1 (Homo sapiens, UniProt P51532); assay: Immunofluorescence assay for BRG1 degradation in SW1573 cells; assay type: cell-based; conditions: 20 hours incubation; for DC50: immunofluorescence mean nuclear signal, read-out: BRG1 IF Degradation IC50; for Dmax: SW1573, 20 h, normalized to a known degrader control, read-out: BRG1 IF Degradation Sinf (%)
T1 construct: either BRM primary antibody (Cell signaling Cat #11966) or BRG primary antibody (Abcam, ab 110641); endogenous in cells; host or cells: SW1573
T1 sequence (P51532 whole entry): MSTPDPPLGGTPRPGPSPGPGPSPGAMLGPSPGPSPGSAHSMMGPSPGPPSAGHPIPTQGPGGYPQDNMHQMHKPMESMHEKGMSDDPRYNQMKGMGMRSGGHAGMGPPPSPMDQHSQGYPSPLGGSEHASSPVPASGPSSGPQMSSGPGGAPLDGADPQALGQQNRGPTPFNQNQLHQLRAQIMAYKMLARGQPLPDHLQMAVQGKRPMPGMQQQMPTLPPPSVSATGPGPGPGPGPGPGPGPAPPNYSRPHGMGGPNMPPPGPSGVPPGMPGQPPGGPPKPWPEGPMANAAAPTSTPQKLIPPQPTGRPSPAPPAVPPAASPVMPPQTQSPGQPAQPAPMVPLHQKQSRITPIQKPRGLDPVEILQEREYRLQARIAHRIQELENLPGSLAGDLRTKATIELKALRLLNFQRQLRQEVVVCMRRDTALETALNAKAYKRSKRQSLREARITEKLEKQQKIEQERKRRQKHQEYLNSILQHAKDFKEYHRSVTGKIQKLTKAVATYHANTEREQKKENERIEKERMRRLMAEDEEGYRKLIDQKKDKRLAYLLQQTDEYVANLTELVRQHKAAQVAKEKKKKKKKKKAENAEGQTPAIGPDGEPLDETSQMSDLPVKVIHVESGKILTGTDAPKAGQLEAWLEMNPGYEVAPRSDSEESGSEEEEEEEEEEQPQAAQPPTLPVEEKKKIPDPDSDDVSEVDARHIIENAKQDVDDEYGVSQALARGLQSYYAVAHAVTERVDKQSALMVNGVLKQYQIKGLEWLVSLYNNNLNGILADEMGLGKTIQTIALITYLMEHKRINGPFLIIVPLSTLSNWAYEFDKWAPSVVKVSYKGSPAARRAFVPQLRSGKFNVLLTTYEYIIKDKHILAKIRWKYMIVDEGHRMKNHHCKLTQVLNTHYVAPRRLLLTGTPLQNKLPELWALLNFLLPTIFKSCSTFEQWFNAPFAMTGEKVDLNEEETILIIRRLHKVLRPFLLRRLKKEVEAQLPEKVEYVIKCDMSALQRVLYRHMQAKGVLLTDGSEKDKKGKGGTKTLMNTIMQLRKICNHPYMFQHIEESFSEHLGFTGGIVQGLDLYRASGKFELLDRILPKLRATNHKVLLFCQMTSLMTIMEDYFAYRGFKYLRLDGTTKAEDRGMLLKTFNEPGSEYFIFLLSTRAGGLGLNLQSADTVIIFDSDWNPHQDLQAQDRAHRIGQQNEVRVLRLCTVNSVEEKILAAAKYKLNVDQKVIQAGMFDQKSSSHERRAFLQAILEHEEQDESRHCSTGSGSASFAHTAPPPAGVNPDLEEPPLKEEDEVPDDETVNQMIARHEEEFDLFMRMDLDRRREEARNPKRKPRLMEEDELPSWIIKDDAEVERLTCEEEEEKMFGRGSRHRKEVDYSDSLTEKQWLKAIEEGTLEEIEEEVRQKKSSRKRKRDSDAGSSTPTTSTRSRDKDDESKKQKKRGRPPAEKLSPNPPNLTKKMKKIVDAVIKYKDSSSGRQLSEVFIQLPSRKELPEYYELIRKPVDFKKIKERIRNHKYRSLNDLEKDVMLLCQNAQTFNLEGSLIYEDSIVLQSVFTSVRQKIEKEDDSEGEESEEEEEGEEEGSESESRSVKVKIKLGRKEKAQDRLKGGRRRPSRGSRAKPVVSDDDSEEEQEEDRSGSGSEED
Summary of the method: as §1

| Structure (SMILES) | DC50 (BRM) [nM] | BRM IF Degradation Sinf (%) (BRM) | DC50 (BRG1) [nM] | Dmax (BRG1) [%] |
| --- | --- | --- | --- | --- |
| Nc1nnc(-c2ccccc2O)cc1N1CC2CCC(C1)N2c1ccnc(C#CCN2CCC(F)CC2)c1 [Compound 131, 2-[6-amino-5-[8-[2-[3-(4-fluoro-1-piperidyl)prop-1-ynyl]-4-pyridyl]-3,8-diazabicyclo[3.2.1]octan-3-yl]pyridazin-3-yl]phenol] | < 10 | E (E indicates −30%-−70%) | < 10 | 0 to 30 |
| Nc1nnc(-c2ccccc2O)cc1N1CC2CCC(C1)N2c1ccnc(C#CCN2CC(c3ccncn3)C2)c1 [Compound 231, 2-[6-amino-5-[8-[2-[3-(3-pyrimidin-4-ylazetidin-1-yl)prop-1-ynyl]-4-pyridyl]-3,8-diazabicyclo[3.2.1]octan-3-yl]pyridazin-3-yl]phenol] | < 10 | E (E indicates −30%-−70%) | < 10 | 30 to 70 |
| CC1CCCN(CC#Cc2cc(N3C4CCC3CN(c3cc(-c5ccccc5O)nnc3N)C4)ccn2)C1 (stereo not drawn) [Compound 61, 2-[6-amino-5-[8-[2-[3-(3-methyl-1-piperidyl)prop-1-ynyl]-4-pyridyl]-3,8-diazabicyclo[3.2.1]octan-3-yl]pyridazin-3-yl]phenol] | < 10 | E (E indicates −30%-−70%) | < 10 | 30 to 70 |
| Nc1nnc(-c2ccccc2O)cc1N1CC2CCC(C1)N2c1ccnc(C#CCN2CC(F)(F)C2)c1 [Compound 223, 2-[6-amino-5-[8-[2-[3-(3,3-difluoroazetidin-1-yl)prop-1-ynyl]-4-pyridyl]-3,8-diazabicyclo[3.2.1]octan-3-yl]pyridazin-3-yl]phenol] | 10 to 100 | E (E indicates −30%-−70%) | < 10 | 30 to 70 |
| Nc1nnc(-c2ccccc2O)cc1N1CC2CCC(C1)N2c1ccnc(C#CCN2CC3(CC(O)C3)C2)c1 [Compound 185, 2-[3-[4-[3-[3-amino-6-(2-hydroxyphenyl)pyridazin-4-yl]-3,8-diazabicyclo[3.2.1]octan-8-yl]-2-pyridyl]prop-2-ynyl]-2-azaspiro[3.3]heptan-6-ol] | > 100 | F (F indicates −71%-−120%) | 10 to 100 | 30 to 70 |
| Nc1nnc(-c2ccccc2O)cc1N1CC2CCC(C1)N2c1cc(C#CCN2CCCCCC2)ncn1 [Compound 247, 2-(6-amino-5-(8-(6-(3-(azepan-1-yl)prop-1-yn-1-yl)pyrimidin-4-yl)-3,8-diazabicyclo[3.2.1]octan-3-yl)pyridazin-3-yl)phenol] | < 10 | F (F indicates −71%-−120%) | < 10 | 71 to 120 |
| Nc1nnc(-c2ccccc2O)cc1N1CC2CCC(C1)N2c1ccnc(C#CCN2CCCCC23CC3)c1 [Compound 153, 2-[6-amino-5-[8-[2-[3-(4-azaspiro[2.5]octan-4-yl)prop-1-ynyl]-4-pyridyl]-3,8-diazabicyclo[3.2.1]octan-3-yl]pyridazin-3-yl]phenol] | < 10 | E (E indicates −30%-−70%) | < 10 | 0 to 30 |
| Nc1nnc(-c2ccccc2O)cc1N1CC2CCC(C1)N2c1ccnc(C#CCN2C[C@@H]3C[C@H]2[C@H]2C[C@@H]32)c1 [Compound 123, 2-[6-amino-5-[8-[2-[3-[(1R,2S,4S,5S)-6-azatricyclo[3.2.1.02,4]octan-6-yl]prop-1-ynyl]-4-pyridyl]-3,8-diazabicyclo[3.2.1]octan-3-yl]pyridazin-3-yl]phenol] | < 10 | E (E indicates −30%-−70%) | < 10 | 30 to 70 |
| Nc1nnc(-c2ccccc2O)cc1N1CC2CCC(C1)N2c1ccnc(C#CCN2CCn3cccc3C2)c1 [Compound 107, 2-[6-amino-5-[8-[2-[3-(3,4-dihydro-1H-pyrrolo[l,2-a]pyrazin-2-yl)prop-1-ynyl]-4-pyridyl]-3,8-diazabicyclo[3.2.1]octan-3-yl]pyridazin-3-yl]phenol] | 10 to 100 | E (E indicates −30%-−70%) | 10 to 100 | 0 to 30 |
| Nc1nnc(-c2ccccc2O)cc1N1CC2CCC(C1)N2c1ccnc(C#CCN2CC3CCCC32)c1 (stereo not drawn) [Compound 162, 2-(5-(8-(2-(3-(6-azabicyclo[3.2.0]heptan-6-yl)prop-1-yn-1-yl)pyridin-4-yl)-3,8-diazabicyclo[3.2.1]octan-3-yl)-6-aminopyridazin-3-yl)phenol] | < 10 | F (F indicates −71%-−120%) | < 10 | 30 to 70 |
| Nc1nnc(-c2ccccc2O)cc1N1CC2CCC(C1)N2c1ccnc(C#CCN2CC(F)(CO)C2)c1 [Compound 171, 2-[6-amino-5-[8-[2-[3-[3-fluoro-3-(hydroxymethyl)azetidin-1-yl]prop-1-ynyl]-4-pyridyl]-3,8-diazabicyclo[3.2.1]octan-3-yl]pyridazin-3-yl]phenol] | > 100 | E (E indicates −30%-−70%) | > 100 | – |
| Nc1nnc(-c2ccccc2O)cc1N1CC2CCC(C1)N2c1ccnc(C#CCN2CC(C(F)(F)F)C2)c1 [Compound 232, 2-[6-amino-5-[8-[2-[3-[3-(trifluoromethyl)azetidin-1-yl]prop-1-ynyl]-4-pyridyl]-3,8-diazabicyclo[3.2.1]octan-3-yl]pyridazin-3-yl]phenol] | 10 to 100 | E (E indicates −30%-−70%) | < 10 | 30 to 70 |
| Nc1nnc(-c2ccccc2O)cc1N1CC2CCC(C1)N2c1ccnc(C#CCN2C[C@@H]3C[C@@H](O)[C@H]2C3)c1 [Compound 109, (1R,4S,6R)-2-[3-[4-[3-[3-amino-6-(2-hydroxyphenyl)pyridazin-4-yl]-3,8-diazabicyclo[3.2.1]octan-8-yl]-2-pyridyl]prop-2-ynyl]-2-azabicyclo[2.2.1]heptan-6-ol] | < 10 | E (E indicates −30%-−70%) | < 10 | 30 to 70 |
| CS(=O)(=O)N1CCC2(CN(CC#Cc3cc(N4C5CCC4CN(c4cc(-c6ccccc6O)nnc4N)C5)ccn3)C2)C1 [Compound 236, 2-[6-amino-5-[8-[2-[3-(7-methylsulfonyl-2,7-diazaspiro[3.4]octan-2-yl)prop-1-ynyl]-4-pyridyl]-3,8-diazabicyclo[3.2.1]octan-3-yl]pyridazin-3-yl]phenol] | > 100 | F (F indicates −71%-−120%) | 10 to 100 | 0 to 30 |
| COC1CCCN(CC#Cc2cc(N3C4CCC3CN(c3cc(-c5ccccc5O)nnc3N)C4)ccn2)C1 (stereo not drawn) [Compound 37, 2-[6-amino-5-[8-[2-[3-(3-methoxy-1-piperidyl)prop-1-ynyl]-4-pyridyl]-3,8-diazabicyclo[3.2.1]octan-3-yl]pyridazin-3-yl]phenol] | 10 to 100 | E (E indicates −30%-−70%) | < 10 | 30 to 70 |
| Nc1nnc(-c2ccccc2O)cc1N1CC2CCC(C1)N2c1ccnc(C#CCN2CCC3(C2)CC3(F)F)c1 (stereo not drawn) [Compound 84, 2-[6-amino-5-[8-[2-[3-(2,2-difluoro-5-azaspiro[2.4]heptan-5-yl)prop-1-ynyl]-4-pyridyl]-3,8-diazabicyclo[3.2.1]octan-3-yl]pyridazin-3-yl]phenol] | < 10 | E (E indicates −30%-−70%) | > 100 | – |
| Nc1nnc(-c2ccccc2O)cc1N1CC2CCC(C1)N2c1ccnc(C#CCN2CC(c3ccccc3)C2)c1 [Compound 234, 2-[6-amino-5-[8-[2-[3-(3-phenylazetidin-1-yl)prop-1-ynyl]-4-pyridyl]-3,8-diazabicyclo[3.2.1]octan-3-yl]pyridazin-3-yl]phenol] | 10 to 100 | E (E indicates −30%-−70%) | 10 to 100 | 71 to 120 |
| Nc1nnc(-c2ccccc2O)cc1N1CC2CCC(C1)N2c1ccnc(C#CCN2CCCC3(CC3)C2)c1 [Compound 99, 2-[6-amino-5-[8-[2-[3-(5-azaspiro[2.5]octan-5-yl)prop-1-ynyl]-4-pyridyl]-3,8-diazabicyclo[3.2.1]octan-3-yl]pyridazin-3-yl]phenol] | < 10 | E (E indicates −30%-−70%) | < 10 | 30 to 70 |
| Nc1nnc(-c2ccccc2O)cc1N1CC2CCC(C1)N2c1ccnc(C#CCN2CC3CC2C3)c1 [Compound 86, 2-[6-amino-5-[8-[2-[3-(2-azabicyclo[2.1.1]hexan-2-yl)prop-1-ynyl]-4-pyridyl]-3,8-diazabicyclo[3.2.1]octan-3-yl]pyridazin-3-yl]phenol] | < 10 | E (E indicates −30%-−70%) | < 10 | 30 to 70 |
| Nc1nnc(-c2ccccc2O)cc1N1CC2CCC(C1)N2c1ccnc(C#CCN2CCCC(F)(F)C(F)C2)c1 (stereo not drawn) [Compound 199, 2-[6-amino-5-[8-[2-[3-(3,4,4-trifluoroazepan-1-yl)prop-1-ynyl]-4-pyridyl]-3,8-diazabicyclo[3.2.1]octan-3-yl]pyridazin-3-yl]phenol] | < 10 | F (F indicates −71%-−120%) | 10 to 100 | 30 to 70 |
| COC(=O)C1CCN1CC#Cc1cc(N2C3CCC2CN(c2cc(-c4ccccc4O)nnc2N)C3)ccn1 (stereo not drawn) [Compound 176, methyl 1-[3-[4-[3-[3-amino-6-(2-hydroxyphenyl)pyridazin-4-yl]-3,8-diazabicyclo[3.2.1]octan-8-yl]-2-pyridyl]prop-2-ynyl]azetidine-2-carboxylate] | 10 to 100 | E (E indicates −30%-−70%) | > 100 | – |
